From US9540351B2, “Pharmaceutically acceptable salts of 3,5-diaminopyrazole kinase inhibitors” (AXIKIN PHARMACEUTICALS, INC., priority 2013, dated 2017)
Like-named read-outs stand apart in the source and are kept apart here.

How the values were obtained:
[1] = Solubility assessment of salts in water; format: physicochemical; conditions: thermodynamic from solid, read-out: Aqueous Solubility
Procedure: Solubility assessment: A preweighed amount of powder of a salt was treated with water to target a nominal concentration of 10 mg/mL. If a clear solution was obtained, then the solubility was noted as ≧10 mg/mL. If a suspension was obtained, additional water was added to target a nominal concentration of 5 mg/mL. If still a suspension after the addition of water, additional water was added to target a lower nominal concentration. If a suspension was still observed at a nominal concentration of 0.1 mg/mL, the suspension was filtered through a 0.4 micron filter, and the filtrate was analyzed by RP-HPLC to ascertain the solubility range of the salt.

[2] = molecular target: T1, kinase domain protein of RC kinase (Homo sapiens, UniProt Q56UN5); assay: Enzymatic assay for kinase inhibitory activity (Crebtide substrate, Lance readout); format: biochemical; conditions: free base compounds, inhibition of RC kinase activity at 1 μM
T1 sequence (Q56UN5 1061-1324 limits assumed): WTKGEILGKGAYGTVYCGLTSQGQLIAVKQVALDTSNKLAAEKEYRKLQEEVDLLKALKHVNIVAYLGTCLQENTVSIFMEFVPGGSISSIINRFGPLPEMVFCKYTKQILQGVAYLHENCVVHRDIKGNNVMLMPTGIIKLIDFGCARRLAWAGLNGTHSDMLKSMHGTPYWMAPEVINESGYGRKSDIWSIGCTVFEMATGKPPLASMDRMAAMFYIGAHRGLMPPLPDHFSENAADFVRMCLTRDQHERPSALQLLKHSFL
Procedure: Solutions of a test compound, Crebtide (a substrate), a kinase, and ATP were prepared using 1×MAPK Buffer (50 mM HEPES, 1 mM EGTA, […], 10 mM MgCl2, 2 mM DTT, and 0.01% Tween 20).
To each well, the test compound (1 μL) was first added (in duplicate) to reach a final concentration of 1 μM or 1×IC50 of the compound. The kinase (5 μL) was then added to each well to reach a final concentration of […] for the kinase domain or […] for the full-length domain. Each plate included a positive and negative controls in duplicate wells. Crebtide (2.5 μL) was then added to each well in duplicate to reach a final concentration of 50 nM. If the full-length kinase was used, the plates were incubated for 45 min at room temperature before proceeding further. ATP (2.5 μL) was added to each well to reach a final concentration of 1 μM for the kinase domain and 3 μM for the full-length.
After the addition of ATP, the plates were incubated for 45 min at room temperature. During the incubation, an EDTA solution (40 mM) and anti-Crebtide ([…]) were prepared. Additionally, a detection buffer stock solution was diluted ten fold before use.
After the incubation, the anti-Crebtide (5 μL) and EDTA (5 μL) were added to each well to reach their final concentrations of […] and 10 mM, respectively. The plates were allowed to develop at room temperature for 45 min. The plates were then read at 665 nm and 615 nm using Perkin Elmer Lance machine.
As will be appreciated by those skilled in the are, the activity of a particular salt provided herein will be the same as the activity for the parent free-base compound.

CN1CCN(c2ccc(NC3N=NC(NCc4ccc(O)cc4)=C3C(N)=O)cc2)CC1 (stereo not drawn) [Compound 2, 5-((4-hydroxybenzyl)amino)-3-((4-(4-methylpiperazin-1-yl)phenyl)amino)-3H-pyrazole-4-carboxamide]
solubility ([1]; Free base): < 40 µg/mL
solubility ([1]; HCl salt): > 1000 µg/mL
inhibition at 1 µM [2]: ≥ 50%

NC(=O)c1c(Nc2ccc3[nH]ncc3c2)n[nH]c1NCc1ccc(O)cc1 [Compound 9, 3-((1H-indazol-5-yl)amino)-5-((4-hydroxybenzyl)amino)-3H-pyrazole-4-carboxamide]
solubility ([1]; Free base): < 40 µg/mL
solubility ([1]; HCl salt): < 100 µg/mL
inhibition at 1 µM [2]: ≥ 50%

NC(=O)C1=C(NCc2ccc(O)cc2)N=NC1Nc1cccc(Cl)c1 (stereo not drawn) [Compound 1, 3-((3-chlorophenyl)amino)-5-((4-hydroxybenzyl)amino)-3H-pyrazole-4-carboxamide]
solubility ([1]; Free base): < 40 µg/mL
solubility ([1]; HCl salt): > 63 µg/mL
inhibition at 1 µM [2]: ≥ 50%

NC(=O)C1=C(NCc2ccc(O)cc2)N=NC1Nc1ccc(N2CCOCC2)nc1 (stereo not drawn) [Compound 5, 5-((4-hydroxybenzyl)amino)-3-((6-morpholinopyridin-3-yl)amino)-3H-pyrazole-4-carboxamide]
solubility ([1]; Free base): < 100 µg/mL
solubility ([1]; HCl salt): > 2000 µg/mL
solubility ([1]; Methane sulfonic acid salt): > 10000 µg/mL
solubility ([1]; Phosphoric acid salt): > 100 µg/mL
solubility ([1]; Sulfuric acid salt): > 10 µg/mL
solubility ([1]; Trifluoroacetic acid salt): > 1000 µg/mL
inhibition at 1 µM [2]: ≥ 50%

NC(=O)C1=C(NCc2ccc(O)cc2)N=NC1Nc1ccc(CN2CCOCC2)cc1 (stereo not drawn) [Compound 3, 5-((4-hydroxybenzyl)amino)-3-((4-(morpholinomethyl)phenyl)amino)-3H-pyrazole-4-carboxamide]
solubility ([1]; Free base): < 40 µg/mL
solubility ([1]; HCl salt): > 500 µg/mL
inhibition at 1 µM [2]: ≥ 50%

NC(=O)c1c(Nc2ccc(N3CCOCC3)cc2)n[nH]c1NCc1ccc(O)cc1 [Compound 4, 5-((4-hydroxybenzyl)amino)-3-((4-morpholinophenyl)amino)-3H-pyrazole-4-carboxamide]
solubility ([1]; Free base): < 100 µg/mL
solubility ([1]; HBr salt): > 10000 µg/mL
solubility ([1]; HCl salt): > 10000 µg/mL
solubility ([1]; Phosphoric acid salt): < 200 µg/mL
solubility ([1]; Sulfuric acid salt): > 2000 µg/mL
solubility ([1]; Trifluoroacetic acid salt): < 200 µg/mL
solubility ([1]; acetic acid salt): < 500 µg/mL
solubility ([1]; camphorsulfonic acid salt): < 200 µg/mL
solubility ([1]; formic acid salt): < 500 µg/mL
inhibition at 1 µM [2]: ≥ 50%

CC(C)N1CCN(c2ccc(Nc3n[nH]c(NCc4ccc(O)cc4)c3C(N)=O)cc2)CC1 [Compound 7, 5-((4-hydroxybenzyl)amino)-3-((4-(4-isopropylpiperazin-1-yl)phenyl)amino)-3H-pyrazole-4-carboxamide]
solubility ([1]; Free base): < 40 µg/mL
solubility ([1]; HCl salt): > 500 µg/mL
solubility ([1]; Phosphoric acid salt): > 1000 µg/mL
inhibition at 1 µM [2]: ≥ 50%

NC(=O)C1=C(NCc2ccc(O)cc2)N=NC1Nc1ccc(-n2ccnc2)cc1 (stereo not drawn) [Compound 8, 3-((4-(1H-imidazol-1-yl)phenyl)amino)-5-((4-hydroxybenzyl)amino)-3H-pyrazole-4-carboxamide]
solubility ([1]; Free base): < 40 µg/mL
solubility ([1]; HCl salt): > 500 µg/mL
solubility ([1]; Phosphoric acid salt): > 1000 µg/mL
inhibition at 1 µM [2]: ≥ 50%

NC(=O)C1=C(NCc2ccc(O)cc2)N=NC1Nc1ccc(-c2ccccn2)cc1 (stereo not drawn) [Compound 6, 5-((4-hydroxybenzyl)amino)-3-((4-(pyridin-2-yl)phenyl)amino)-3H-pyrazole-4-carboxamide]
solubility ([1]; Free base): < 100 µg/mL
solubility ([1]; Phosphoric acid salt): > 20000 µg/mL
solubility ([1]; Sulfuric acid salt): < 500 µg/mL
solubility ([1]; Trifluoroacetic acid salt): < 500 µg/mL
solubility ([1]; camphorsulfonic acid salt): < 500 µg/mL
solubility ([1]; p-toluenesulfonic acid salt): < 200 µg/mL
solubility ([1]; tartaric acid salt): < 200 µg/mL
inhibition at 1 µM [2]: ≥ 50%
